# Data published in US20250277272A1, “CANCER TREATMENTS AND METHODS OF SELECTING SAME” (The General Hospital Corporation, priority 2016, published 2025).
# Experiments:
# [1] = system: BRAF-mutant melanoma cells; test: BRAFi sensitivity after STAG3 knockdown (cell viability and ERK inhibition); type: cell-based; conditions: knockdown of STAG3
# A375 cells = test: MTS cell viability assay, A375 cells with STAG2 knockdown; type: cell-based; conditions: A375 cells expressing STAG2-specific shRNA vs scrambled control shRNA; 3 d
# Description: FIGS. 2A-2H. […] FIG. 2A, Viability of A375 cells expressing cither a scrambled control shRNA or a STAG2-specific shRNA (shSTAG2 #23), after treatment with varying concentrations of dabrafenib (Dab) for 3 d. Experiment was performed three times. Data are mean±s.e.m. shSTAG2 #23 sequence: […] TTTG; SEQ ID NO. […] 2) FIG. 2B, Representative Western blot analysis of A375 cells that were treated with dabrafenib for 2 hr. Experiment was performed three times. […] Experiment was performed three times. FIG. 2D, Representative Western blot analysis of SKMEL30 cells that were treated with vemurafenib for 2 hr. […] Experiment was performed 3 times. Data are mean±s.e.m. […] Experiment was performed three times. […] Experiment was performed three times. […] Experiment was performed three times.
# Experiment was performed 3 times. Data are mean±s.e.m. […] Experiment was performed three times. […] Experiment was performed three times. […] Experiment was performed 3 times. Data are mean±s.e.m. […] Experiment was performed three times. […] Experiment was performed three times. […] Experiment was performed 3 times. […] Experiment was performed 3 times. Data are mean±s.e.m. […] Experiment was performed 3 times.
# ERK phosphorylation = test: Western blot of p-ERK in A375 cells with STAG2 and/or STAG3 knockdown; type: cell-based; conditions: 2 hr treatment
# Description: (§1) FIGS. 2A-2H. Knock-down of STAG2 or STAG3 decreases BRAFi sensitivity in BRAF-mutant melanoma cells. FIG. 2A, Viability of A375 cells expressing cither a scrambled control shRNA or a STAG2-specific shRNA (shSTAG2 #23), after treatment with varying concentrations of dabrafenib (Dab) for 3 d. Experiment was performed three times. Data are mean±s.e.m. shSTAG2 #23 sequence: […] TTTG; SEQ ID NO. 1) scramble control shRNA sequence: ([…]: SEQ ID NO. 2) FIG. 2B, Representative Western blot analysis of A375 cells that were treated with dabrafenib for 2 hr. Experiment was performed three times. FIG. 2C, Viability of SKMEL28 cells expressing an inducible STAG2-specific shRNA (shStag2 #60; […]: SEQ ID NO. 3) and cultured in the presence (+Dox) or absence (−Dox) of doxycycline after treatment with varying concentrations of vemurafenib (VEM) for 3 d. Experiment was performed three times. FIG. 2D, Representative Western blot analysis of SKMEL30 cells that were treated with vemurafenib for 2 hr. FIG. 2E, Viability of A375 cells expressing either a scrambled control shRNA or a STAG3-specific shRNA (shSTAG3 #96), after treatment with varying concentrations of dabrafenib for 3 days. Experiment was performed 3 times. Data are mean±s.e.m. […]
# [2] = system: SKMEL28, A375 and M14 cells; test: Sensitivity of cells with inducible STAG2 shRNA to BRAFi (viability, Western blot); type: cell-based; conditions: inducible expression of an independent shRNA targeting STAG2
# Description: as §1
# melanoma = test: Melanoma patient treated with BRAFi, relapse; type: in vivo, human; conditions: one melanoma patient who relapsed
# Description: This mutation in STAG2 gene (c.577G>A, resulting in Asp193Asn) was subsequently confirmed by Sanger sequencing. Although the pretreatment sample contains trace amounts of the mutated allele, it is greatly enriched in the post-relapse sample (FIG. 1A). STAG2 (also known as SA2) encodes a core subunit in the cohesin complex that regulates cohesion and segregation of sister chromatids^11,12. […] Stag2 has two other paralogs in mammals, Stag1 and Stag3. […] Sanger sequencing was subsequently performed for all coding exons of STAG2 and STAG3 genes in these cell line pairs and identified a STAG2 nonsense mutation (c.3247A>T, resulting in a change of Lys1083 to a stop codon (Lys1083*)) in WM902BR cells, which was not present in the parental WM902 cells (FIG. 6A). No mutations in STAG3 were identified in this cell line panel. […] STAG3 mutations were detected in post-relapse, but not pre-treatment, samples from an additional six patients from this study (Table 2).
# Patient samples and immunohistochemistry (IHC): Patients with metastatic melanoma containing BRAF^Val600 mutations (confirmed by genotyping) were enrolled in clinical trials testing treatment with a BRAF inhibitor alone or in combination with a MEK inhibitor. […] Formalin-fixed tissue was analyzed to confirm that viable tumor was present, using hematoxylin and eosin (H&E) staining. […]
# WM902BR cells = test: MTS assay with the ERK inhibitor, WM902 (Stag2 WT) and WM902BR (Stag2 mutant); type: cell-based; conditions: 3 days, two independent experiments
# Description: Both WM902 (Stag2 WT) and WM902BR (Stag2 mutant) were treated with various concentrations of ERK inhibitor SCH772984 for 3 days, before MTS assays were performed. Data were from two independent experiments: Experiment A (FIG. 11A) and Experiment B (FIG. 11B).
# (§2) Cell culture: All melanoma cell lines used in this study contain BRAF^Val600Glu mutations, except as otherwise indicated. A375 and SKMEL28 cells were purchased from the American Type Culture Collection (ATCC). LOX-IVMI cells were obtained from the Division of Cancer Treatment and Diagnosis. National Cancer Institute. (NCI-DCTD) repository. WM902, WM902-BR, WM983, WM983-BR and MEL1617 cell lines were obtained from Dr. Meenhard Herlyn (Wistar Institute). Immortalized Braf-null mouse embryonic fibroblasts (MEFs) were a gift from Dr. Catrin Pritchard (University of Leicester)^38. 501MEL and SKMEL103 cells, harboring NRAS mutations, were gifts from Dr. Lynda Chin (MD Anderson Cancer Center) and Dr. Jonathon Zippin (Weill Cornell Medical College), respectively. These cell lines were not authenticated by the inventors. WM902, WM983, M14, MEL1617, SKMEL28, A375, LOX-IVMI, 501MEL and SKMEL103 cells were cultured in RPMI containing 10% FBS (FBS) and penicillin-streptomycin-glutamine (PSG). HEK293 and MEF cells were maintained in Dulbecco's modified Eagle's medium (DMEM) containing 10% FBS and PSG. […]
# [3] = system: M14 or SKMEL28 melanoma cells; test: MTS assay with the ERK inhibitor, cells with inducible Stag2 knockdown; type: cell-based; conditions: doxycycline-induced shStag2 #60; 3 days
# Description: M14 (FIG. 12A) or SKMEL28 (FIG. 12B) melanoma cells expressing pTRIPZ-shStag2 #60 were cultured in the presence or absence of doxycycline (Doxy) for 5 days to induce the expression of Stag2 shRNAs and treated with various concentrations of ERK inhibitor SCH772984 for 3 days, before MTS assays were performed.
# as §2, with “(PSG).” for “(PSG). HEK293 and MEF cells were maintained in Dulbecco's modified Eagle's medium (DMEM) containing 10% FBS and PSG.”
smiles,measurement,setting,value
CC(C)(C)c1nc(-c2cccc(NS(=O)(=O)c3c(F)cccc3F)c2F)c(-c2ccnc(N)n2)s1 [dabrafenib],sensitivity with regard to cell viability and ERK inhibition,[1],decreased sensitivity
same,sensitivity in cell viability assay (MTS),A375 cells,lower sensitivity
same,ability to inhibit ERK phosphorylation,ERK phosphorylation,reduction in the ability
same,sensitivity of cells to BRAFi,[2],decreased the sensitivity
CCCS(=O)(=O)Nc1ccc(F)c(C(=O)c2c[nH]c3ncc(-c4ccc(Cl)cc4)cc23)c1F [vemurafenib],time-to-disease-progression,melanoma,5 months
O=C(Nc1ccc2[nH]nc(-c3ccncc3)c2c1)[C@@H]1CCN(CC(=O)N2CCN(c3ccc(-c4ncccn4)cc3)CC2)C1 [SCH772984],sensitivity of cells in MTS assay,WM902BR cells,sensitive to inhibition
same,effect of Stag2 knockdown on sensitivities in MTS assay,[3],does not affect their sensitivities
